Experimental data from ChEMBL document CHEMBL3217594, “Structureactivity relationships of methyl-lysine reader antagonists” (Medchemcomm, 2012).
Active and inactive are the calls of the source. The rule behind the calls is not given here.

Assays:
[1] = target: T1, Scm-like with four MBT domains protein 1 (Homo sapiens) (UniProt Q9UHJ3); assay: Antagonist activity at SFMBT1 (unknown origin) assessed as inhibition of SFMBT1/biotinylated H3K9Me1 peptide interaction at 30 uM after 30 mins by AlphaScreen assay
T1 sequence (whole entry): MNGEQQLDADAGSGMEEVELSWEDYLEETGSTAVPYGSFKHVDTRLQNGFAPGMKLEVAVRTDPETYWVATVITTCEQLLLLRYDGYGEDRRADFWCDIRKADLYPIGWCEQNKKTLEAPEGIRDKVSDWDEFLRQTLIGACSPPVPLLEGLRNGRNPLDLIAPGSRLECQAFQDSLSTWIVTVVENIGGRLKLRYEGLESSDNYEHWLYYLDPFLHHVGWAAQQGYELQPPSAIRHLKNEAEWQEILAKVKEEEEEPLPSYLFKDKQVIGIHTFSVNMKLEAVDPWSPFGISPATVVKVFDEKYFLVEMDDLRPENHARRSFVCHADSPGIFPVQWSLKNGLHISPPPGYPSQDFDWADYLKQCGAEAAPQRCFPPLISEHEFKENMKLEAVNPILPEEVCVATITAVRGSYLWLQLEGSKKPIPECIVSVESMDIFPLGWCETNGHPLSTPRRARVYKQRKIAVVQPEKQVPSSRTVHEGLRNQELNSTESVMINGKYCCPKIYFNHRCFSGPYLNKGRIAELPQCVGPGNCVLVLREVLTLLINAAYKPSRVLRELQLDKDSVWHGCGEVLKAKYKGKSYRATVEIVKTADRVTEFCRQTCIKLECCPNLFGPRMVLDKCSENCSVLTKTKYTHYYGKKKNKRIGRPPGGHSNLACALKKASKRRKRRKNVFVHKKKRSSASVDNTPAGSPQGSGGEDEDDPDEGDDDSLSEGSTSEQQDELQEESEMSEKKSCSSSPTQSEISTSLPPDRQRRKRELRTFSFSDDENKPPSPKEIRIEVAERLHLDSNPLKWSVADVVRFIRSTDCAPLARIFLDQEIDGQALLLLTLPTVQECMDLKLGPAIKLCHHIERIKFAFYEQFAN

[2] = target: T2, Lethal(3)malignant brain tumor-like protein 4 (Homo sapiens, UniProt Q8NA19); assay: Antagonist activity at L3MBTL4 (unknown origin) assessed as inhibition of L3MBTL4/biotinylated H2AK36Me1 peptide interaction after 30 mins by AlphaScreen assay
T2 sequence (Q8NA19 whole entry): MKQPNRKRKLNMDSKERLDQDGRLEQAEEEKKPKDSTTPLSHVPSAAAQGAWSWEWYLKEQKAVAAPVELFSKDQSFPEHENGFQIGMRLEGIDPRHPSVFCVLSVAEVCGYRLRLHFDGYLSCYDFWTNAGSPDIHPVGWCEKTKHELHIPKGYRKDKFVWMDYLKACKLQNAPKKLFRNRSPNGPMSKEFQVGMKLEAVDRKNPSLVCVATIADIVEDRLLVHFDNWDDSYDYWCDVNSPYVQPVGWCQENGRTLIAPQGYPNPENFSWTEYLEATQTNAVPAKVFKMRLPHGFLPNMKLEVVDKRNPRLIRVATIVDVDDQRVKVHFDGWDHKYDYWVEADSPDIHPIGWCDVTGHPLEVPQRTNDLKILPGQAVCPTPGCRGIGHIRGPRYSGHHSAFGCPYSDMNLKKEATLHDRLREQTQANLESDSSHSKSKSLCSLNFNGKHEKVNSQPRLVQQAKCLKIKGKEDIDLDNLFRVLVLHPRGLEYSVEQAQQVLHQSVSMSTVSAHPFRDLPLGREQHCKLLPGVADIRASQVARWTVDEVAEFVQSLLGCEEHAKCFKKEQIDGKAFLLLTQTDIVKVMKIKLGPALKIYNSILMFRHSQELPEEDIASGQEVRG

[3] = target: T3, Scm-like with four MBT domains protein 1 (Homo sapiens, UniProt Q9UHJ3); assay: Antagonist activity at SFMBT1 (unknown origin) assessed as inhibition of SFMBT1/biotinylated H3K9Me1 peptide interaction after 30 mins by AlphaScreen assay
T3 sequence (Q9UHJ3 whole entry): T1 sequence (whole entry)

[4] = target: T4, Lethal(3)malignant brain tumor-like protein 1 (Homo sapiens) (UniProt Q9Y468); conditions: Plus RIL, 30 uM
T4 sequence (whole entry): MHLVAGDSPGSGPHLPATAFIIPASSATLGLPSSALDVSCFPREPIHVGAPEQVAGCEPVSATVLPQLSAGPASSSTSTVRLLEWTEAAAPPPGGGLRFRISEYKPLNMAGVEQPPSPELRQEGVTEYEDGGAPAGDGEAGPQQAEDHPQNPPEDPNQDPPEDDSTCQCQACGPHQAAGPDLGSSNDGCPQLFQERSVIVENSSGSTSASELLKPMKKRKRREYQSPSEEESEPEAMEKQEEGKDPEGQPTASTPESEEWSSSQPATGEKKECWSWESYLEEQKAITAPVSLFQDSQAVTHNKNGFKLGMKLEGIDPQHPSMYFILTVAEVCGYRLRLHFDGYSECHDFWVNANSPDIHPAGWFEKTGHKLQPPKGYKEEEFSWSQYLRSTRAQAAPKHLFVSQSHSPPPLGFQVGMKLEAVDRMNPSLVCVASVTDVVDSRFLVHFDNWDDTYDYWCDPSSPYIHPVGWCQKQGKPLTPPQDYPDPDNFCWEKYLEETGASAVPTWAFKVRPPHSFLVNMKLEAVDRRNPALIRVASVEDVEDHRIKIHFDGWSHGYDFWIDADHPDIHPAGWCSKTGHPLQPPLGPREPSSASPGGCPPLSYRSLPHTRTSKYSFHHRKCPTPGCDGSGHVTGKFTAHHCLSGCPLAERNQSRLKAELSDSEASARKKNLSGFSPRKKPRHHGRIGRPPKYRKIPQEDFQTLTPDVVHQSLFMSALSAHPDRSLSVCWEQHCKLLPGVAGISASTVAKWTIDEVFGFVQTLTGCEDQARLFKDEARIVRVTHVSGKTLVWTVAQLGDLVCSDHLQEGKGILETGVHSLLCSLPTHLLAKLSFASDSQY

[5] = target: T5, Chromobox protein homolog 7 (Homo sapiens) (UniProt O95931); assay: Antagonist activity at Flag-tagged CBX7 (unknown origin) assessed as inhibition of CBX7/biotinylated H3K9Me3 peptide interaction at 30 uM after 30 mins by AlphaScreen assay
T5 sequence (whole entry): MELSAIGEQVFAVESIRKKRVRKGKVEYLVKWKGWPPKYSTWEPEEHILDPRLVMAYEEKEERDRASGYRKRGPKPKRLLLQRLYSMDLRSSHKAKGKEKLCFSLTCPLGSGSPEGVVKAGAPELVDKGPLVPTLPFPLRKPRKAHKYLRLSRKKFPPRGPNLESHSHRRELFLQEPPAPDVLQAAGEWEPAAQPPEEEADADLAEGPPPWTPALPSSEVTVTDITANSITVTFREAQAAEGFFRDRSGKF

Compound | inhibition [1] | IC50 [2] [µM] | IC50 [3] [µM] | inhibition [4] | inhibition [5]
O=C(c1cccc(Br)c1)N1CCC(N2CCCC2)C1 (centres undefined) | inactive | > 30 | > 30 | 18% | 4%
CC(c1cccc(Br)c1)N1CCC(N2CCCC2)CC1 (racemic) | inactive | > 30 | > 30 | 25% | inactive
O=C(c1cccc(Br)c1)N1CCC(N2CCCC2)CC1 | 12% | 15.6 | > 30 | – | 11%
CC1CCCN1C1CCN(C(=O)c2cccc(Br)c2)CC1 (centres undefined) | inactive | > 30 | > 30 | 6% | inactive
O=C(c1cccc(Br)c1)N1CCC(C2CCCN2)CC1 (centres undefined) | inactive | > 30 | > 30 | 6% | inactive
O=C(c1cccc(Br)c1)N1CCN(C2CCCC2)CC1 | inactive | > 30 | > 30 | inactive | 1%
CNC1CCN(C(=O)c2cccc(Br)c2)CC1 | inactive | > 30 | > 30 | inactive | 3%
CN1CCCC1C1CCN(C(=O)c2cccc(Br)c2)CC1 (centres undefined) | inactive | > 30 | > 30 | 3% | inactive
O=C(c1cccc(Br)c1)N1CCC(N2CCC2)CC1 | inactive | > 30 | > 30 | 32% | 11%
O=C(O)c1cccc(C(=O)N2CCC(N3CCCC3)CC2)c1 | inactive | > 30 | > 30 | 31% | 4%
O=C(c1cccc(Br)c1)N1CCC(N2CCCCC2)CC1 | inactive | > 30 | > 30 | 5% | 3%
C[N+]1(C2CCN(C(=O)c3cccc(Br)c3)CC2)CCCC1 | inactive | > 30 | > 30 | inactive | 17%
CN(C)C1CCN(C(=O)c2cccc(Br)c2)CC1 | inactive | > 30 | > 30 | 5% | inactive
O=S(=O)(c1cccc(Br)c1)N1CCC(N2CCCC2)CC1 | inactive | > 30 | > 30 | 48% | inactive
Brc1cccc(CN2CCC(N3CCCC3)CC2)c1 | inactive | > 30 | > 30 | 20% | inactive
